The results in this text go back to patent US20170079966A1, “INHIBITION OF TUMOR CELL INTERACTIONS WITH THE MICROENVIRONMENT RESULTING IN A REDUCTION IN TUMOR GROWTH AND DISEASE PROGRESSION” (Deciphera Pharmaceuticals, LLC, priority 2014, published 2017).

One may read the IC50 as the concentration that inhibits the measured activity by half.

The target in assay [1] is T1, TIE2 (Homo sapiens, UniProt Q02763). Briefly: HUVEC Phospho-TIE2 Western Blot Assay. The format is cell-based. The arrangement: host or cells: HUVEC. As to conditions: 4 hours compound; 800 ng/mL ANG1 complex 15 minutes; read-out: IC50, ANG1-stimulated phospho-TIE2 in HUVECs. The procedure: HUVEC cells (2.5×10^5 cells/well) were added to a 24-well tissue-culture treated plate in 1 mL of EGM-2 culture medium (Lonza, Walkersville, Md.). Cells were then incubated overnight at 37 degrees Celsius, 5% CO2, and 95% humidity. Media was then aspirated and 1 mL EBM-2 basal medium (Lonza, Walkersville, Md.) supplemented with 2% FBS (Invitrogen, Carlsbad, Calif.) was added. […] The plates were then incubated for 4 hours at 37 degrees Celsius, 5% CO2, and 95% humidity. During the incubation, histidine-tagged angiopoietin 1 (ANG1) growth factor (R&D Systems, Minneapolis, Minn.) was added to an anti-polyhistidine antibody (R&D Systems, Minneapolis, Minn.) for 30 minutes at room temperature to generate multimers of ANG1. […] The media was aspirated and the cells were washed with PBS. The cells were lysed using MPER lysis buffer (Pierce, Rockford, Ill.) containing Halt Phosphatase and Protease Inhibitors (Pierce, Rockford, Ill.) and Phosphatase inhibitor cocktail 2 (Sigma, St. Louis, Mo.) at 4° C. for 10 minutes with shaking. […] Fluorescence was detected using a Storm 840 phosphorimager (GE Healthcare, Piscataway, N.J.) in fluorescence mode. The 160 kDa phospho-TIE2 band was quantified using ImageQuant software (GE Healthcare, Piscataway, N.J.). Data was analyzed using Prism software (GraphPad Software, San Diego, Calif.) to calculate the IC50 value.
Target sequence in this assay (Q02763 23-1124): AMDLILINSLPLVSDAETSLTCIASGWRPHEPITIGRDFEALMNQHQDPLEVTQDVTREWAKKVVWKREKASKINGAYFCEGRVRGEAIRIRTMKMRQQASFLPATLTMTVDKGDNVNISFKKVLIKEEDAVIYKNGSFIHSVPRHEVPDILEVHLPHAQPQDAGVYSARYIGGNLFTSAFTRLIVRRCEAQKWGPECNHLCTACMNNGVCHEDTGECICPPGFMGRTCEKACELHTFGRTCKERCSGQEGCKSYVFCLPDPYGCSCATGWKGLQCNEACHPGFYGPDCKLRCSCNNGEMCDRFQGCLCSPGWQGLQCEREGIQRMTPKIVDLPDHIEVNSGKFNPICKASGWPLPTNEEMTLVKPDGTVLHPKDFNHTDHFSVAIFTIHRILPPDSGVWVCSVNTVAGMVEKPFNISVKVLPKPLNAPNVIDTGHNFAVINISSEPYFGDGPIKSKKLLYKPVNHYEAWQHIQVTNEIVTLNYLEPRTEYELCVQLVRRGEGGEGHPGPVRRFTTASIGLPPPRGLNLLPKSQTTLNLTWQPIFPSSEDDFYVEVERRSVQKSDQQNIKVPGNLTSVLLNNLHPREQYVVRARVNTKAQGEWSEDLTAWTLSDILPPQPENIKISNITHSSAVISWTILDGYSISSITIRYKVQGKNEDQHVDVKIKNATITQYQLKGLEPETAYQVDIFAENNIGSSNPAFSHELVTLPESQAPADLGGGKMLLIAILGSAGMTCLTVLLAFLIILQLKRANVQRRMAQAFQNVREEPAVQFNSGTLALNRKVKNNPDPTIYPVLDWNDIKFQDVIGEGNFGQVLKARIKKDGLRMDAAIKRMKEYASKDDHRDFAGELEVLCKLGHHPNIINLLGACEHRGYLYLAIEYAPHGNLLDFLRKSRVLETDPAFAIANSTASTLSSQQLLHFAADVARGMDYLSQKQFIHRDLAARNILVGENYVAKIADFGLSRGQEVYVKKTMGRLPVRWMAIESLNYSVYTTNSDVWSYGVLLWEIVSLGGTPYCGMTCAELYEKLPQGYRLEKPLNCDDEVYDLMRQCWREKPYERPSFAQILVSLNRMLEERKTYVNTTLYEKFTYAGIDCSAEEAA
(In general: A western blot detects proteins with antibodies after separation by electrophoresis.)

A further assay concerns B16/F10 cells. The assay can be described thus: B16/F10 metastatic melanoma model. As to conditions: Compound 1 15 mg/kg.
The target in assay [2] is T1, TIE2. The assay can be described thus: Phospho-TIE2 Western blot in TIE2 expressing CHO-K1 cells. The following applies: CHO cells transiently expressing TIE2; 4 hours; read-out: IC50, inhibiting the constitutive phosphorylation of TIE2. The format is cell-based. Also on record: expressed in transfected cells; host or cells: CHO-K1 (ATCC CCL-61), transient transfection. The procedure: Briefly, cells were grown in F12K medium supplemented with 10% characterized fetal bovine serum (Invitrogen, Carlsbad, Calif.), 100 units/mL penicillin G, 100 μg/ml streptomycin, and 0.29 mg/mL L-glutamine (Invitrogen, Carlsbad, Calif.) at 37 degrees Celsius, 5% CO2, and 95% humidity.
CHO K1 cells (1×10^5 cells/well) were added to a 24-well tissue-culture treated plate in 1 mL of RPMI1640 medium supplemented with 10% characterized fetal bovine serum and 1× non-essential amino acids (Invitrogen, Carlsbad, Calif.). Cells were then incubated overnight at 37 degrees Celsius, 5% CO2, and 95% humidity. Medium was aspirated, and 0.5 mL of medium was added to each well. Transfection-grade plasmid DNA (TIE2 gene Gateway cloned into pcDNA3.2™/V5-DEST expression vector, Invitrogen, Carlsbad, Calif.) was diluted to 5 μg/mL in room temperature Opti-MEM® I Medium without serum (Invitrogen, Carlsbad, Calif.). Two μL of Lipofectamine LTX Reagent (Invitrogen, Carlsbad, Calif.) was added per 0.5 μg of plasmid DNA. […] Fluorescence was detected using a Storm 840 phosphorimager (GE Healthcare, Piscataway, N.J.) in fluorescence mode. […] The 160 kDa phospho-TIE2 and total TIE2 bands were quantified using ImageQuant software (GE Healthcare, Piscataway, N.J.), and data was plotted using Prism software (GraphPad Software, San Diego, Calif.).
Target sequence in this assay (Q02763 23-1124, species assumed): as the sequence (Q02763 23-1124) above

As to `O=C(Nc1cc(Oc2cc(F)c(NC(=O)C3(C(=O)Nc4ccc(F)cc4)CC3)cc2F)ccn1)C1CC1` [Compound 1, N-(4-(2-(cyclopropanecarboxamido)pyridin-4-yloxy)-2,5-difluorophenyl)-N′-(4-fluorophenyl)cyclopropane-1,1-dicarboxamide], the IC50 at TIE2 [1] amounted to 1 nM; on TIE2 [2], 2.4 nM. Besides, in the assay with B16/F10 cells, the T-C is given as over 4.3 days. The “Treated animals with metastases on Day 21 (ex vivo BLI)” value in the assay with B16/F10 cells (2/12 animals) came to 16.6%. For the same compound, the “Inhibition of the development of pulmonary metastases” value in the assay on B16/F10 cells (Day 21) came to 72%. In addition, in the assay on B16/F10 cells (treatment from Day 0), the “% T/C, tumor growth on Day 21” value is reported as 30%.
